Common to all, as to assay: Post-emergence efficacy, Method A
Holding throughout (type): in vivo

Experiment [1] concerns Echinochloa crus-galli (ECHCG). Particulars: read-out: Control of weed species after post-emergence application, ECHCG.
Another experiment relates to Setaria faberi (SETFA). Particulars: read-out: Control of weed species after post-emergence application, SETFA.
The next experiment relates to Eleusine indica (ELEIN). Particulars: read-out: Control of weed species after post-emergence application, ELEIN.
The test system of experiment [2] is Digitaria sanguinalis (DIGSA). Particulars: read-out: Control of weed species after post-emergence application, DIGSA.
The test system of experiment [3] is Chenopodium album (CHEAL). Particulars: read-out: Control of weed species after post-emergence application, CHEAL.
For experiment [4], the system named is Amaranthus palmeri (AMAPA). Particulars: read-out: Control of weed species after post-emergence application, AMAPA.
Another experiment deals with Lolium perenne (LOLPE). Particulars: read-out: Control of weed species after post-emergence application, LOLPE.
Experiment [5] deals with Ipomoea hederacea (IPOHE). Particulars: read-out: Control of weed species after post-emergence application, IPOHE.
Where [6] appears, read: 500 g/Ha, 100=total damage to plant, 0=no damage, evaluated after 7 and 14 days.

Like-named read-outs stand apart in the source and are kept apart here.

Turning to `O=C(O)CC[n+]1ccc(-c2nc(C(F)(F)F)co2)cc1` [Compound A45], the pest or weed control at 500 g/ha in experiment [1] (setting [6]) stood at 10%; in the experiment with Setaria faberi (SETFA) (setting [6]), 0%; with Eleusine indica (ELEIN) (setting [6]), 50%; in experiment [2] (setting [6]) it was 20%; in experiment [3] (setting [6]), 0%; in experiment [4] (setting [6]), 0%. The pest or weed control at 500 g/ha (in the experiment with Lolium perenne (LOLPE) (setting [6]); in experiment [5] (setting [6])) was 0% throughout.

For the compound `O=S(=O)([O-])CCC[n+]1ccc(-c2noc(C(F)(F)F)n2)cc1` [Compound A15, 3-[4-[5-(trifluoromethyl)-1,2,4-oxadiazol-3-yl]pyridin-1-ium-1-yl]propane-1-sulfonate], the pest or weed control at 500 g/ha in experiment [1] (setting [6]) was found to be 30%; in the experiment on Setaria faberi (SETFA) (setting [6]) it was 30%; in the experiment on Eleusine indica (ELEIN) (setting [6]) it was 10%; in experiment [2] (setting [6]), 30%; in experiment [3] (setting [6]), 0%; in experiment [4] (setting [6]), 0%. The pest or weed control at 500 g/ha was found to be 0% in the experiment with Lolium perenne (LOLPE) (setting [6]) and 20% in experiment [5] (setting [6]).

Turning to `CC([n+]1ccc(-c2ncns2)cc1)S(=O)(=O)[O-]` (centres unmarked) [Compound A11], the pest or weed control at 500 g/ha came to 100% in experiment [1] (setting [6]); 60% in the experiment with Setaria faberi (SETFA) (setting [6]); 90% in the experiment with Eleusine indica (ELEIN) (setting [6]); 80% in experiment [2] (setting [6]); 90% in experiment [3] (setting [6]); 100% in experiment [4] (setting [6]). Also, the pest or weed control at 500 g/ha in the experiment with Lolium perenne (LOLPE) (setting [6]) stood at 60%; in experiment [5] (setting [6]), 80%.

In the case of `O=S(=O)([O-])CC[n+]1ccc(-c2ccno2)cc1` [Compound A41], the pest or weed control at 500 g/ha was determined as 10% in experiment [1] (setting [6]); 10% in the experiment on Setaria faberi (SETFA) (setting [6]); 0% with Eleusine indica (ELEIN) (setting [6]); 10% in experiment [2] (setting [6]); 0% in experiment [3] (setting [6]); 10% in experiment [4] (setting [6]). Besides, the pest or weed control at 500 g/ha (in the experiment on Lolium perenne (LOLPE) (setting [6]); in experiment [5] (setting [6])) was 0% in each case.

As for `Cc1noc(-c2cc[n+](CCC(=O)O)cc2)n1` [Compound A50], the pest or weed control at 500 g/ha was 20% in experiment [1] (setting [6]); 80% in the experiment on Setaria faberi (SETFA) (setting [6]); 40% with Eleusine indica (ELEIN) (setting [6]); 90% in experiment [2] (setting [6]); 70% in experiment [3] (setting [6]); 40% in experiment [4] (setting [6]). The pest or weed control at 500 g/ha in the experiment on Lolium perenne (LOLPE) (setting [6]) stood at 50%; in experiment [5] (setting [6]), 30%.

Turning to `CNC(=O)c1cc(-c2cc[n+](CCCS(=O)(=O)[O-])cc2)on1` [Compound A52], the pest or weed control at 500 g/ha in experiment [1] (setting [6]) amounted to 10%; in the experiment with Setaria faberi (SETFA) (setting [6]), 10%; with Eleusine indica (ELEIN) (setting [6]) it was 10%; in experiment [2] (setting [6]) it was 20%; in experiment [3] (setting [6]) it was 30%; in experiment [4] (setting [6]), 20%. Besides, the pest or weed control at 500 g/ha (with Lolium perenne (LOLPE) (setting [6]); in experiment [5] (setting [6])) was 10% each time.

In the case of `O=C(O)C[n+]1ccc(-c2nc(C(F)(F)F)ns2)cc1` [Compound A1, 2-[4-[3-(trifluoromethyl)-1,2,4-thiadiazol-5-yl]pyridin-1-ium-1-yl]acetic acid 2,2,2-trifluoroacetate], the pest or weed control at 500 g/ha in experiment [1] (setting [6]) amounted to 60%; with Setaria faberi (SETFA) (setting [6]) it was 90%; in the experiment on Eleusine indica (ELEIN) (setting [6]), 90%; in experiment [2] (setting [6]), 70%; in experiment [3] (setting [6]), 90%; in experiment [4] (setting [6]) it was 100%. Besides, the values for the pest or weed control at 500 g/ha (in the experiment with Lolium perenne (LOLPE) (setting [6]); in experiment [5] (setting [6])) were 70% and 40%, respectively.

Consider `O=S(=O)([O-])C[n+]1ccc(-c2ccsn2)cc1` [Compound A42], for which the pest or weed control at 500 g/ha in experiment [1] (setting [6]) came to 10%; with Setaria faberi (SETFA) (setting [6]) it was 10%; with Eleusine indica (ELEIN) (setting [6]), 0%; in experiment [2] (setting [6]), 10%; in experiment [3] (setting [6]), 20%; in experiment [4] (setting [6]), 90%. Moreover, the pest or weed control at 500 g/ha in the experiment with Lolium perenne (LOLPE) (setting [6]) amounted to 0%; in experiment [5] (setting [6]), 10%.

With `CS(=O)(=O)[N-]C(=O)C[n+]1ccc(-c2ncns2)cc1` [Compound A29], the pest or weed control at 500 g/ha in experiment [1] (setting [6]) is 90%; with Setaria faberi (SETFA) (setting [6]) it was 50%; in the experiment with Eleusine indica (ELEIN) (setting [6]), 50%; in experiment [2] (setting [6]), 90%; in experiment [3] (setting [6]) it was 30%; in experiment [4] (setting [6]), 90%. The pest or weed control at 500 g/ha stood at 40% in the experiment on Lolium perenne (LOLPE) (setting [6]) and 90% in experiment [5] (setting [6]).

Regarding `Cc1nsc(-c2cc[n+](CS(=O)(=O)[O-])cc2)n1` [Compound A2, [4-(3-methyl-1,2,4-thiadiazol-5-yl)pyridin-1-ium-1-yl]methanesulfonate], the pest or weed control at 500 g/ha in experiment [1] (setting [6]) stood at 60%; in the experiment with Setaria faberi (SETFA) (setting [6]), 70%; in the experiment on Eleusine indica (ELEIN) (setting [6]), 80%; in experiment [2] (setting [6]) it was 90%; in experiment [3] (setting [6]) it was 90%; in experiment [4] (setting [6]) it was 100%. Also, the pest or weed control at 500 g/ha in the experiment on Lolium perenne (LOLPE) (setting [6]) was found to be 60%; in experiment [5] (setting [6]) it was 70%.

As for `COP(=O)([O-])C[n+]1ccc(-c2ncns2)cc1` [Compound A30, methoxy-[[4-(1,2,4-thiadiazol-5-yl)pyridin-1-ium-1-yl]methyl]phosphinate], the pest or weed control at 500 g/ha in experiment [1] worked out at 90%; in the experiment on Setaria faberi (SETFA), 90%; with Eleusine indica (ELEIN), 90%; in experiment [2] it was 90%; in experiment [3], 70%; in experiment [4] it was 90%. Besides, the pest or weed control at 500 g/ha with Lolium perenne (LOLPE) came out at 30%; in experiment [5], 50%.

With `O=C(O)C[n+]1ccc(-c2ccno2)cc1` [Compound A40], the pest or weed control at 500 g/ha in experiment [1] (setting [6]) is 0%; with Setaria faberi (SETFA) (setting [6]) it was 0%; in the experiment with Eleusine indica (ELEIN) (setting [6]), 0%; in experiment [2] (setting [6]), 0%; in experiment [3] (setting [6]) it was 0%; in experiment [4] (setting [6]), 10%. Besides, the pest or weed control at 500 g/ha is 0% in the experiment on Lolium perenne (LOLPE) (setting [6]) and 20% in experiment [5] (setting [6]).

For `O=S(=O)([O-])C[n+]1ccc(-c2csnn2)cc1` [Compound A54], the pest or weed control at 500 g/ha was determined as 0% in experiment [1] (setting [6]); 0% in the experiment with Setaria faberi (SETFA) (setting [6]); 20% in the experiment on Eleusine indica (ELEIN) (setting [6]); 10% in experiment [2] (setting [6]); 20% in experiment [3] (setting [6]); 20% in experiment [4] (setting [6]). The results for the pest or weed control at 500 g/ha (in the experiment on Lolium perenne (LOLPE) (setting [6]); in experiment [5] (setting [6])) were 0% and 20%, respectively.

With `O=S(=O)([O-])CC[n+]1ccc(-c2ncco2)cc1` [Compound A39], the pest or weed control at 500 g/ha was 0% in experiment [1] (setting [6]); 0% in the experiment on Setaria faberi (SETFA) (setting [6]); 0% in the experiment with Eleusine indica (ELEIN) (setting [6]); 0% in experiment [2] (setting [6]); 30% in experiment [3] (setting [6]); 40% in experiment [4] (setting [6]). The pest or weed control at 500 g/ha in the experiment on Lolium perenne (LOLPE) (setting [6]) was determined as 0%; in experiment [5] (setting [6]) it was 20%.

As to `O=S(=O)([O-])CC[n+]1ccc(-c2nc(C(F)(F)F)ns2)cc1` [Compound A38], the pest or weed control at 500 g/ha stood at 60% in experiment [1] (setting [6]); 40% in the experiment on Setaria faberi (SETFA) (setting [6]); 80% in the experiment on Eleusine indica (ELEIN) (setting [6]); 50% in experiment [2] (setting [6]); 60% in experiment [3] (setting [6]); 90% in experiment [4] (setting [6]). In addition, the pest or weed control at 500 g/ha is 70% with Lolium perenne (LOLPE) (setting [6]) and 60% in experiment [5] (setting [6]).

As to `CP(=O)([O-])C[n+]1ccc(-c2ncns2)cc1` [Compound A10, methyl-[[4-(1,2,4-thiadiazol-5-yl)pyridin-1-ium-1-yl]methyl]phosphinate], the pest or weed control at 500 g/ha in experiment [1] was 90%; in the experiment with Setaria faberi (SETFA), 100%; in the experiment with Eleusine indica (ELEIN) it was 90%; in experiment [2], 90%; in experiment [3], 90%; in experiment [4], 90%. Moreover, the pest or weed control at 500 g/ha with Lolium perenne (LOLPE) stood at 40%; in experiment [5], 50%.

Values taken from patent US20220104493A1, “HERBICIDAL COMPOUNDS” (SYNGENTA CROP PROTECTION AG, priority 2019, published 2022).
